Five compounds from ChEMBL document CHEMBL1159217, “Anti-inflammatory activity of saikosaponins from Heteromorpha trifoliata” (1995) can be followed below.

Holding throughout (format): functional
Assay [1] relates to Mus musculus. In words: Antiinflammatory activity in Swiss mouse assessed as inhibition of 12-O-tetradecanoylphorbol acetate-induced ear edema at 0.5 mg/ear administered tropically.
The test system of assay [2] is Mus musculus. In words: Antiinflammatory activity in Swiss mouse assessed as inhibition of carrageenan-induced ear edema at 100 mg/kg, po administered 1 hr prior to carrageenan challenge measured after 3 hrs. On the technique in general: The carrageenan paw model is a standard test of acute inflammation.
Assay [3] relates to Mus musculus. In words: Antiinflammatory activity in Swiss mouse assessed as inhibition of serotonin-induced ear edema at 50 mg/kg, sc in presence of cycloheximide administered simultaneously and 1.5 hrs after compound treatment for 3 hrs. Further details: scale not given: the % may be the effect or the level left. The note with it: route subcutaneous.
The test system of assay [4] is Mus musculus. In words: Antiinflammatory activity in Swiss mouse assessed as inhibition of serotonin-induced ear edema at 50 mg/kg, sc in presence of actinomycin D administered simultaneously and 1.5 hrs after compound treatment for 3 hrs. The note with it: route subcutaneous. Also noted: scale not given: the % may be the effect or the level left.
Assay [5] relates to Mus musculus. In words: Antiinflammatory activity in Swiss mouse assessed as inhibition of serotonin-induced ear edema at 50 mg/kg, sc. The settings on record: route subcutaneous.
For assay [6], the system named is Mus musculus. In words: Antiinflammatory activity in Swiss mouse assessed as inhibition of ethylphenylpropiolate-induced ear edema at 0.5 mg/ear administered tropically 16 hrs prior to ethylphenylpropiolate challenge.
Assay [7] deals with Mus musculus. In words: Antiinflammatory activity in Swiss mouse assessed as inhibition of serotonin-induced ear edema at 50 mg/kg, sc in presence of progesterone administered 1 hr prior to compound treatment. The note with it: route subcutaneous.

Usually inhibition in vivo stands for the drop in the measured response relative to a control, in per cent.

As for `CO[C@@H]1C=C2[C@@H]3CC(C)(C)CC[C@]3(CO)[C@@H](O)C[C@@]2(C)[C@]2(C)CC[C@H]3[C@](C)(CO)[C@@H](O[C@@H]4O[C@H](C)[C@H](O)[C@H](O[C@@H]5O[C@H](CO)[C@@H](O)[C@H](O)[C@H]5O)[C@H]4O[C@@H]4O[C@H](CO)[C@@H](O)[C@H](O)[C@H]4O)CC[C@]3(C)[C@@H]12`, the “inhibition (INH)” value in the assay with Mus musculus [1] came out at 87%. Moreover, the inhibition in vivo at 100 mg/kg with Mus musculus [2] was determined as 18%.
Consider `C[C@H]1O[C@@H](O[C@H]2CC[C@@]3(C)[C@@H](CC[C@]4(C)[C@@H]3C=C[C@]35OC[C@@]6(CCC(C)(C)C[C@H]63)[C@@H](O)C[C@]54C)[C@]2(C)CO)[C@H](O[C@@H]2O[C@H](CO)[C@@H](O)[C@H](O)[C@H]2O)[C@@H](O[C@@H]2O[C@H](CO)[C@@H](O)[C@H](O)[C@H]2O)[C@H]1O` [BUDDLEJASAPONIN IV], for which the Activity in the assay with Mus musculus [3] and in the assay on Mus musculus [4] was 14% throughout. Also, in the assay on Mus musculus [5], the inhibition in vivo at 50 mg/kg was 48%. The “inhibition (INH)” value with Mus musculus [6] came to 59%; in the assay with Mus musculus [1] it was 89%. For the same compound, the inhibition in vivo at 100 mg/kg in the assay on Mus musculus [2] is 23%.
Consider `C[C@@H]1C[C@H]2[C@@H]3CCC4=CC(=O)C=C[C@]4(C)[C@@]3(F)[C@@H](O)C[C@]2(C)[C@@]1(O)C(=O)CO` [DEXAMETHASONE], for which, in the assay with Mus musculus [6], the “inhibition (INH)” value is given as 82%.
For the compound `COc1ccc2c(c1)c(CC(=O)O)c(C)n2C(=O)c1ccc(Cl)cc1` [INDOMETHACIN], the “inhibition (INH)” value with Mus musculus [1] is recorded as 89%.
On to `CC(=O)[C@H]1CC[C@H]2[C@@H]3CCC4=CC(=O)CC[C@]4(C)[C@H]3CC[C@]12C` [PROGESTERONE], for which the inhibition in vivo at 50 mg/kg with Mus musculus [7] was found to be 44%.
